In general, IC50 refers to the midpoint of a concentration-inhibition curve. Lower therefore signals greater potency. Usually inhibition stands for the percentage by which the read-out fell short of the control.

Activity calls are given as the source filed them. No cut-off for these calls is given here. Where only a bound is given, the exact number is not on record here.

Data set [1] concerns the target T1, Cholinesterase (Equus caballus, UniProt P81908). Put plainly: Inhibition of equine serum BuChE using S-butyrylthiocholine iodide as substrate and measured for 60 secs by Ellman's method. Type of data set: cell-free. In general terms: In Ellman's method for cholinesterases, released thiocholine reacts with DTNB.
The target in data set [2] is BuChE (butyrylcholinesterase) (Equus caballus, UniProt P81908). The data set is described as follows: (§1) Substrate activity at equine serum BuChE assessed as compound hydrolysis at 10XIC50 measured after 1 hr by HPLC analysis. The format is ADME, cell-free. Particulars: horse, equine serum butyrylcholinesterase (BuChE), read-out: Drug metabolism.
Data set [3] is described as follows: Drug metabolism in sodium phosphate buffer assessed as compound hydrolysis at 10XIC50 measured after 24 hrs by HPLC analysis. The format is ADME. Particulars: read-out: Drug metabolism.
In data set [4] the target is T1, Cholinesterase. The description is as §1. Type of data set: ADME, cell-free. The note with it: horse, serum, 1 h.
In data set [5] the target is Cholinesterase (Equus caballus) (UniProt P81908). Put plainly: Reversible inhibition of equine serum BuChE assessed as residual enzyme activity at IC50 using S-butyrylthiocholine iodide as substrate preincubated with enzyme for 60 mins followed by 80-fold dilution with BTC and DTNB and measured for 1 min by spectrophotometric analysis relative to control. The format is cell-free. The note with it: time 61.0 min.

The target is the same in data set [6]. Put plainly: Inhibition of equine serum BuChE assessed as residual enzyme activity at 20 uM using S-butyrylthiocholine iodide as substrate and measured for 60 secs by spectrophotometric analysis relative to control. Type of data set: cell-free. Particulars: time 60.0 sec.
Data set [7] has the same target. Put plainly: Inhibition of equine serum BuChE assessed as residual enzyme activity at 10 uM using S-butyrylthiocholine iodide as substrate and measured for 60 secs by spectrophotometric analysis relative to control. The format is cell-free. The note with it: time 60.0 sec.
Data set [8] has the same target. The data set is described as follows: Inhibition of equine serum BuChE assessed as residual enzyme activity at 50 uM using S-butyrylthiocholine iodide as substrate and measured for 60 secs by spectrophotometric analysis relative to control. Type of data set: cell-free. The note with it: time 60.0 sec.
Data set [9] addresses Acetylcholinesterase (Electrophorus electricus) (UniProt O42275). The data set is described as follows: Inhibition of electric eel AChE assessed as residual enzyme activity at 10 uM using acetylthiocholine iodide as substrate and measured for 1 min by spectrophotometrc analysis relative to control.
Data set [10] shares this target. The data set is described as follows: Inhibition of electric eel AChE assessed as residual enzyme activity at 20 uM using acetylthiocholine iodide as substrate and measured for 1 min by spectrophotometrc analysis relative to control.
Data set [11] has the same target. The data set is described as follows: Inhibition of electric eel AChE assessed as residual enzyme activity at 50 uM using acetylthiocholine iodide as substrate and measured for 1 min by spectrophotometrc analysis relative to control.
Data set [12] has as its target T2, Trypsin (Homo sapiens) (UniProt P07477+P07478+P35030). Put plainly: Inhibition of trypsin (unknown origin) assessed as residual enzyme activity at 10 uM using 4-nitrophenyl acetate as substrate and measured for 1 min by spectrophotometric analysis relative to control. The format is protein assay.
The target in data set [13] is T2, Trypsin (Homo sapiens). The data set is described as follows: Inhibition of trypsin (unknown origin) assessed as residual enzyme activity at 20 uM using 4-nitrophenyl acetate as substrate and measured for 1 min by spectrophotometric analysis relative to control. Type of data set: protein assay.
For data set [14], the target named is T2, Trypsin (Homo sapiens). Put plainly: Inhibition of trypsin (unknown origin) assessed as residual enzyme activity at 50 uM using 4-nitrophenyl acetate as substrate and measured for 1 min by spectrophotometric analysis relative to control. Type of data set: protein assay.
The target of data set [15] is Acetylcholinesterase (Electrophorus electricus) (UniProt O42275). The data set is described as follows: Inhibition of electric eel AChE at 50 uM using acetylthiocholine iodide as substrate and measured for 1 min by spectrophotometrc analysis relative to control.
Data set [16] addresses T2, Trypsin (Homo sapiens). The data set is described as follows: Inhibition of trypsin (unknown origin) at 50 uM using 4-nitrophenyl acetate as substrate and measured for 1 min by spectrophotometric analysis relative to control. Type of data set: protein assay.
Data set [17] addresses Acetylcholinesterase (Electrophorus electricus) (UniProt O42275). Put plainly: Inhibition of electric eel AChE at 100XIC50 for BuChE using acetylthiocholine iodide as substrate and measured for 1 min by spectrophotometrc analysis.
Data set [18] concerns the target Cholinesterase (Equus caballus) (UniProt P81908). The data set is described as follows: Irreversible inhibition of equine serum BuChE assessed as residual enzyme activity at IC50 using S-butyrylthiocholine iodide as substrate preincubated with enzyme for 60 mins followed by 80-fold dilution with BTC and DTNB and measured for 1 min by spectrophotometric analysis relative to control. Type of data set: cell-free. The note with it: time 61.0 min.

For data set [19], the target named is Acetylcholinesterase (Electrophorus electricus) (UniProt O42275). The data set is described as follows: Inhibition of electric eel AChE at 25XIC50 for BuChE using acetylthiocholine iodide as substrate and measured for 1 min by spectrophotometrc analysis relative to control.

Sequence of Acetylcholinesterase (Electrophorus electricus) (O42275 24-633 limits assumed): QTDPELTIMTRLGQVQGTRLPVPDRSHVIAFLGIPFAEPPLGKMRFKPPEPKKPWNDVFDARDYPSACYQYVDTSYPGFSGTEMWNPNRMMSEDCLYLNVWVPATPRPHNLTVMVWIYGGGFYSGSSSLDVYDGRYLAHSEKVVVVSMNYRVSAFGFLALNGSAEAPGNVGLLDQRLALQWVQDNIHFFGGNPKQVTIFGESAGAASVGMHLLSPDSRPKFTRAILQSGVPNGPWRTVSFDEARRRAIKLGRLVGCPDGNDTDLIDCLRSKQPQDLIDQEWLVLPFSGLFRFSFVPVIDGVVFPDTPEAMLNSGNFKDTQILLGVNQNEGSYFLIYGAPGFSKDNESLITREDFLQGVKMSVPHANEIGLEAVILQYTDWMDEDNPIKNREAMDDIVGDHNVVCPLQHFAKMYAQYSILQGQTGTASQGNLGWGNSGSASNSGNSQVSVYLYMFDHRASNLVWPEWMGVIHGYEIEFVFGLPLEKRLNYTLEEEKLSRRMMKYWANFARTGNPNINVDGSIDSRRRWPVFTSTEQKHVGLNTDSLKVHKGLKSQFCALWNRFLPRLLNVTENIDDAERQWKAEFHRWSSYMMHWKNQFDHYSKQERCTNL
Sequence of Cholinesterase (Equus caballus) (P81908 whole entry): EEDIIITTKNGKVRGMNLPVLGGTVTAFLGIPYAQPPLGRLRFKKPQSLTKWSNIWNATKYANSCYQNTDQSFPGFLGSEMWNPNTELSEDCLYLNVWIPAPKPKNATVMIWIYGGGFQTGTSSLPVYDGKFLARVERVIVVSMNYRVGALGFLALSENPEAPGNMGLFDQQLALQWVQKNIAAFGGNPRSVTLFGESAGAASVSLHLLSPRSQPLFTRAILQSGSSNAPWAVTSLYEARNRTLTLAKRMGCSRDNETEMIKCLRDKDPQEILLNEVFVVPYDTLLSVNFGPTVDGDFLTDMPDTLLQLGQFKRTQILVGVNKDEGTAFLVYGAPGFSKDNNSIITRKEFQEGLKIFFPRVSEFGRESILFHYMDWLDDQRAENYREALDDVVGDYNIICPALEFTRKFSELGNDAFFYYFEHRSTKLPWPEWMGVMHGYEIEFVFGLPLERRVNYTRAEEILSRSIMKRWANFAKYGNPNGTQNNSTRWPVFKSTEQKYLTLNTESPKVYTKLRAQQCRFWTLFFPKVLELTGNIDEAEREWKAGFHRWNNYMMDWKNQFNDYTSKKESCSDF
T1 sequence (P81908 whole entry): as above
Sequence of BuChE (butyrylcholinesterase) (P81908 whole entry): as above

In turn, `C[C@H](NC(=O)OCC1c2ccccc2-c2ccccc21)C(=O)O` had an IC50 in data set [1] of at least 200 µM.

As to `O=C(O)CNC(=O)OCC1c2ccccc2-c2ccccc21`, the half-inhibitory concentration (IC50) in [1] is at least 200 µM.

Regarding `C[N+](C)(C)CCOC(=O)[C@H](Cc1ccccc1)NC(=O)OCC1c2ccccc2-c2ccccc21`, the IC50 in [1] turned out to be 1 µM. Also, the metabolised at 1 h in data set [2] was about 100%. In data set [3], the degraded at 24 h is about 20%.

Regarding `C[N+](C)(C)CCNC(=O)CNC(=O)OCC1c2ccccc2-c2ccccc21.[I-]`, 3.7 µM corresponded to half-maximal inhibition in [1] (IC50). In data set [4], the Drug metabolism result is on record as “Metabolite_Notdetected”. Besides, the Ratio in [5] stood at 1; in data set [6], 0.21; in data set [7], 0.36; in data set [8], 0.07; in [9], 0.99; in [10], 0.95. For the same molecule, the Ratio in data set [11] was 0.84; in data set [12], 0.96; in data set [13] it was 0.96; in data set [14], 1.06. The inhibition in [15] is 10%; in data set [16] it was under 5%. Also, the inhibition entry in [17] is “Active”.

The molecule `CC(C)C[C@H](NC(=O)OCC1c2ccccc2-c2ccccc21)C(=O)O` displayed an IC50 in [1] of 134 µM.

In turn, `O=C(N[C@@H](Cc1ccccc1)C(=O)O)OCC1c2ccccc2-c2ccccc21` showed an IC50 in [1] of 320 µM.

`CC(C)(C)OC(=O)n1cc(C[C@H](NC(=O)OCC2c3ccccc3-c3ccccc32)C(=O)OCC[N+](C)(C)C)c2ccccc21` gave an IC50 in [1] of 0.4 µM. Moreover, the metabolised at 1 h in data set [2] was about 25%. Also, the degraded at 24 h in data set [3] was about 20%.

As for `CC(C)C[C@H](NC(=O)OCC1c2ccccc2-c2ccccc21)C(=O)OCC[N+](C)(C)C`, the IC50 in data set [1] is 0.7 µM. Moreover, the metabolised at 1 h in [2] is about 50%. Also, in data set [3], the degraded at 24 h was about 20%.

For the molecule `C[N+](C)(C)CCOC(=O)CNC(=O)OCC1c2ccccc2-c2ccccc21`, inhibition in data set [1] was half-maximal at 6.7 µM (IC50). In data set [2], the metabolised at 1 h is about 100%. For the same molecule, in [3], the degraded at 24 h was about 20%.

`CC(C)(C)OC(=O)NCCCC[C@H](NC(=O)OCC1c2ccccc2-c2ccccc21)C(=O)NCC[N+](C)(C)C.[I-]` showed an IC50 in [1] of 0.14 µM. Moreover, in [4], the Drug metabolism result is “Metabolite_Notdetected”. Moreover, the Ratio came to 1.04 in [5]; 0.03 in [6]; 0.06 in [7]; 0.01 in data set [8]; 1.01 in data set [9]; 1 in data set [10]. The Ratio in [11] is 0.81; in data set [12], 1; in [13], 0.95; in data set [14] it was 0.97. The inhibition is 20% in data set [15] and under 5% in [16]. Also, the inhibition result in data set [17] is “Active”.

Regarding `CC(C)(C)OC(=O)NCCCC[C@H](NC(=O)OCC1c2ccccc2-c2ccccc21)C(=O)OCC[N+](C)(C)C`, 0.5 µM corresponded to half-maximal inhibition in data set [1] (IC50). In addition, the metabolised at 1 h in data set [2] was about 25%. Also, the degraded at 24 h in data set [3] is about 20%.

In turn, `CC(C)(C)OC(=O)n1cc(C[C@H](NC(=O)OCC2c3ccccc3-c3ccccc32)C(=O)O)c2ccccc21` yielded an IC50 in [1] of 23 µM. This counts as double-digit micromolar.

As to `C[C@H](NC(=O)OCC1c2ccccc2-c2ccccc21)C(=O)OCC[N+](C)(C)C`, the IC50 in data set [1] stood at 5.1 µM. For the same molecule, the metabolised at 1 h in [2] is about 25%. Moreover, the degraded at 24 h in data set [3] is about 20%.

`C[C@H](NC(=O)OCC1c2ccccc2-c2ccccc21)C(=O)NCC[N+](C)(C)C.[I-]` registered an IC50 in data set [1] of 7.5 µM. The Drug metabolism entry in data set [4] is recorded as “Metabolite_Notdetected”. Further, the Ratio in data set [5] came to 1.02; in data set [6] it was 0.31; in data set [7] it was 0.44; in data set [8], 0.13; in data set [9], 1; in data set [10], 0.97. Besides, the Ratio in [11] turned out to be 0.94; in [12], 1.01; in data set [13], 1.04; in data set [14], 0.98. Moreover, the inhibition in data set [16] is under 5%. In addition, the inhibition entry in [17] was “Active”.

The molecule `CC(C)C[C@H](NC(=O)OCC1c2ccccc2-c2ccccc21)C(=O)NCC[N+](C)(C)C.[I-]` came in with an IC50 in data set [1] of 1.8 µM. In [4], the Drug metabolism result is given as “Metabolite_Notdetected”. Moreover, the Ratio in [5] stood at 1.01; in data set [6] it was 0.11; in data set [7], 0.21; in data set [8], 0.03; in [9], 1; in data set [10] it was 1.01. Moreover, the Ratio in data set [11] was determined as 0.92; in data set [12] it was 1.05; in [13], 0.99; in data set [14], 0.99. Moreover, in data set [16], the inhibition was under 5%. The inhibition result in data set [17] was “Active”.

Regarding `O=S(=O)(F)Cc1ccccc1`, the Ratio was under 0.01 in [7], 0.01 in data set [18], under 0.01 in data set [9] and under 0.01 in data set [12].

Turning to `CC(C)(C)OC(=O)NCCCC[C@H](NC(=O)OCC1c2ccccc2-c2ccccc21)C(=O)O`, the IC50 in data set [1] was 41 µM.

In data set [1], `C[N+](C)(C)CCNC(=O)[C@H](Cc1ccccc1)NC(=O)OCC1c2ccccc2-c2ccccc21.[I-]` gave an IC50 of 0.6 µM. Also, in data set [4], the Drug metabolism result is reported as “Metabolite_Notdetected”. Also, the Ratio came out at 1.01 in [5]; 0.03 in [6]; 0.07 in [7]; 0.02 in [8]; 0.97 in data set [9]; 0.99 in [10]. Also, the Ratio in data set [11] turned out to be 0.89; in data set [12] it was 1.01; in data set [13] it was 1.01; in data set [14], 0.95. The figures for the inhibition in data set [15] and in data set [16] were 10% and under 5%, respectively. The inhibition entry in [17] was “Active”.

In turn, `CC(C)(C)OC(=O)n1cc(C[C@H](NC(=O)OCC2c3ccccc3-c3ccccc32)C(=O)NCC[N+](C)(C)C)c2ccccc21.[I-]` registered an IC50 in data set [1] of 0.17 µM. Besides, the Drug metabolism entry in data set [4] is listed as “Metabolite_Notdetected”. The Ratio is 0.99 in [5]; 0.02 in data set [6]; 0.04 in [7]; under 0.01 in data set [8]; 0.96 in [9]; 0.87 in [10]. The Ratio worked out at 0.68 in data set [11], 1 in data set [12], 0.93 in data set [13] and 0.94 in data set [14]. The inhibition in [19] is 10%; in data set [15], 30%; in data set [16] it was under 5%. In addition, the inhibition result in [17] is “Active”.

The values are drawn from ChEMBL document CHEMBL5370562, “Synthesis and evaluation of Fmoc-amino esters and amides bearing a substrate like quaternary ammonium group as selective butyrylcholinesterase inhibitors” (Bioorg Med Chem Lett, 2023).
